Measurements reported in patent EP4251148B1, “HISTAMINE H3 RECEPTOR ANTAGONISTS/INVERSE AGONISTS FOR THE TREATMENT OF AUTISM SPECTRUM DISORDER” (Richter Gedeon Nyrt., priority 2020, dated 2022).

Tests used:
H3 receptor = target: T1, H3 receptor (Rattus norvegicus, UniProt Q9QYN8); assay: imetit-induced dipsogenia test; assay type: in vivo, Harlan Wistar rats; details: rats, test compound p.o. 30 min before imetit 3 mg/kg sc.; reversal of water intake
T1 construct: from tissue; host or cells: whole living rat (central H3 receptors); animals from Janvier Elevage, France
T1 sequence (Q9QYN8 whole entry): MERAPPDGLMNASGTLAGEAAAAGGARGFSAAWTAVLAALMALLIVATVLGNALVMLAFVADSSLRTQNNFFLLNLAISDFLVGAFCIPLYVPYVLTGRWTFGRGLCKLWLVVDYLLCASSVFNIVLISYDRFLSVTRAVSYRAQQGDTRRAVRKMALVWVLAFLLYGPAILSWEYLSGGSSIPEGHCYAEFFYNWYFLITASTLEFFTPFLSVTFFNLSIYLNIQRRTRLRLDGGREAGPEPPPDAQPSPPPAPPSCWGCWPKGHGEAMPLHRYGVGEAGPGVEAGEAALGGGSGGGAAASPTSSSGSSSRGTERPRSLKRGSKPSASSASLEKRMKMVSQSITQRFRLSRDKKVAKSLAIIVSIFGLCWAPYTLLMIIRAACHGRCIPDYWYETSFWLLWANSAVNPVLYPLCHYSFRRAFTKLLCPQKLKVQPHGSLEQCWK
Description: Brain penetrant histamine H3 receptor agonists such as R-α-methylhistamine and imetit cause an acute increase in water intake in rodents (Galici et al., 2009; Barbier et al., 2007; Clapham and Kilpatrick, 1993; Garbarg et al., 1993). This dipsogenic effect is specific to H3 receptor activation as it can be antagonized selectively by centrally acting H3 antagonists (e.g., thioperamide or clobenpropit) and not by H1 or H2 […] such as mepyramide or loxtidine, respectively (Fox et al., 2002; Clapham and Kilpatrick, 1992). Therefore, the inhibition of H3 receptor-mediated dipsogenia can be used as a central pharmacodynamic measure of in vivo H3 receptor function following peripheral administration of antagonist/inverse agonist compounds (Raddatz et al., 2012; Medhurst et al., 2007; Fox et al., 2005).
The protocol has been derived from Clapham and Kilpatrick (1992) with modifications. Group-housed adult male Harlan Wistar rats (Janvier Elevage, France) (340-500 g at the time of testing) were used as experimental animals. Rats were repeatedly used for testing for a maximum of four to five times with one week of wash-out period between testing days. Before commencing drug-testing sessions, animals were first habituated to the test procedure without receiving any drug treatment. On habituation days animals were administered 5 mL/kg distilled water p.o. and 30 min later 1 mL/kg physiological saline was injected sc., while drinking water was withdrawn from the home-cages. After a further 30 min, rats were isolated in test cages, where they had access to tap water, but not to chow. Water consumption was measured 30 min later. Rats that had drunken at least 0.2 g water during this period were randomized into treatment groups. On experimental days animals were administered the test compound or vehicle p.o. and 30 min later 3 mg/kg of the H3 receptor agonist imetit was injected sc. Investigational compounds were given in a volume of 5 mL/kg. Imetit dihydrobromide (Tocris, UK) was dissolved in physiological saline and administered in a volume of 1 mL/kg. Directly after treatment with imetit, drinking water was withdrawn from the home-cages. After an additional 30 min, rats were isolated to test cages, where they had access to tap water, but not to chow. Water consumption was measured after a free drinking period of 10 min.
Means ± S.E. of water intake (in grams) were calculated for each group. Significance of drug effect was determined by ANOVA followed by the post hoc Duncan-test. Significance was considered at the p<0.05 level. The percental reversal of imetit-induced water intake was calculated from the group means using the formula as follows, percental reversal of dipsogenia equals 1-((IME-DRUG)/(IME-VEH))·100, where IME is water intake of the p.o. vehicle plus imetit group, VEH is water intake of p.o. vehicle plus sc. vehicle group, and DRUG is water intake of p.o. test compound plus sc. […] group. Percental reversal was plotted for each dose and an ED50 value was calculated from the fitted curve (reversal values greater than 100% were taken into account as 100% reversal) based on linear regression.

[1] = system: prenatally valproate treated rats; assay: tactile sensitivity measurement with von Frey filaments in the prenatal valproate model; assay type: in vivo, Wistar rats; details: p.o., 60 min after treatment, 18-day-old rats
Description: The prenatal valproate (VPA) model has excellent construct and face validity, therefore it is a widely accepted disease model of ASD. With respect to face validity, prenatal VPA exposure may lead to socio-communicational defects, excessive repetitive behaviors and increased sensitivity of various modalities (e.g., touch). […] Compounds that produced efficacy signals in ASD subjects comprise eg., oxytocin (Andari et al., PNAS 2010, 107:4389-4394).
In this method, time-mated female Wistar rats are administered a single dose of VPA (300 mg/kg, i.p.) on gestational day 12.5. Offspring are housed according to standard laboratory conditions until time of behavioral testing. Animals are housed in groups of 4 in conventional cages and maintained at 22-24°C on a standard 12-hour light/dark cycle, with food and water available ad libitum. […]
During the measurement with von Frey filaments, 18-day-old rats were placed separately in small cages (dimensions: 7 x 7 x 9 cm) with mesh floors. […] First, a baseline sensitivity value was determined, and animals were randomized into treatment groups based on this baseline. Sixty min after p.o. treatment sensitivity was measured again. A 50% sensitivity threshold was calculated based on the value of the last measured fiber thickness and the application pattern of the various filament thicknesses. […]

BALB/C mice = assay: three-chamber assay, social novelty session, BALB/C mouse model of ASD; assay type: in vivo; details: 10 mg/kg (top dose); ** p<0.01 vs. familiar
Description: The BALB/c mouse is a low-sociability, inbred line that is accepted as an idiopathic model of ASD (Brodkin, 2007; Burket et al., 2020; Ellegood, 2015; Jacome et al., 2011). Although the precise background of behavior is not known, the line carries a loss of function single nucleotide polymorphism in the tryptophane hydroxylase gene causing a 50% reduction in enzyme function (Russo et al., 2018). […] This model also has some predictive validity as some compounds that produced efficacy signals in humans have also been active in BALB/c mice such as D-cycloserine (Deutsch et al., 2012) or oxytocin (Teng et al., 2013).
The three-chamber assay was performed in an 8-channel LABORAS™ sociability system (Metris b.v., Hoofdorp, The Netherlands). […] Consequently, movements of target mice were not recorded. Just like in the classical LABORASTM set-up (Van de Weerd et al., 2001; Quinn et al., 2003), mechanical vibration generated by movement of the animals was transformed to electrical signals that were analyzed and the trajectory of the animals was determined. […]
During the behavioral assays, test mice were habituated first to the center compartment of the three-chamber apparatus with the guillotine doors closed for 2 min. […] During this test session the time spent in the center chamber as well as with direct contact or no contact on the social versus non-social side was recorded. […]

monoamine oxidase B = details: human and rat enzyme; slight preference for monoamine oxidase B; cited from earlier work
[2] = system: prenatal valproate model of ASD in mice; details: 3 mg/kg intraperitoneally; cited from earlier work
monoamine oxidase A = details: human and rat enzyme; cited from earlier work
[3] = 3 mg/kg intraperitoneally; cited from earlier work

Structure (SMILES) | imetit-induced dipsogenia ED50 (H3 receptor) [mg/kg p.o.] | further results
C[C@@H]1CCCN1CCc1cc2cc(-c3ccc(C#N)cc3)ccc2o1 [ABT-239, 4-(2-{2-[(2R)-2-Methylpyrrolidin-1-yl]ethyl}-benzofuran-5-vl)benzonitrile] | 0.26 | 
CNC(=O)c1ccc(Oc2ccc3c(c2)CCN(C2CCC2)CC3)nc1 [GSK-189254, 6-[(3-cyclobutyl-1,2,4,5-tetrahydro-3-benzazepin-7-yl)oxy]-N-methylpyridine-3-carboxamide] | 0.14 | tactile hypersensitivity (threshold level of paw withdrawal to von Frey filaments) ([1]; 0.1 mg/kg (middle dose), + p<0.05 vs. VPA, inverted U-shaped dose-response curve): reversed this tactile hypersensitivity
Cn1nc(N2CCC(OC(=O)N3CCN(C4CCC4)CC3)CC2)ccc1=O [LML-134, 1-(1-methyl-6-oxo-1,6-dihydropyridazin-3-yl)piperidin-4-yl 4-cyclobutylpiperazine-1-carboxylate] | < 1 | social novelty (time spent with investigation of the novel animal) (BALB/C mice): improve social novelty; tactile hypersensitivity (threshold level of paw withdrawal to von Frey filaments) ([1]; 10 mg/kg (top dose), ++ p<0.01 vs. VPA): reversed this tactile hypersensitivity
CCNC(=O)C1CC(F)(c2ccc(CN3CCCC3)c(F)c2)C1 (stereo not drawn) [PF-03654746, trans-N-Ethyl-3-fluoro-3-[3-fluoro-4-(1pyrrolidinylmethyl)phenyl]cyclobutanecarboxamide] | 0.78 | 
O=C(c1ccc(CN2CCOCC2)cc1)N1CCN(C2CC2)CC1 [bavisant, (4-cyclopropylpiperazin-1-yl)-[4-(morpholin-4-ylmethyl)phenyl]methanone] | < 0.3 | 
O=C(c1ccc(OCCCc2cnc[nH]2)cc1)C1CC1 [ciproxifan] |  | inhibition of monoamine oxidase B (monoamine oxidase B): micromolar concentration range; social deficits and excessive repetitive behavior [2]: improved social deficits and excessive repetitive behavior; inhibition of monoamine oxidase A (monoamine oxidase A): micromolar concentration range; plasma exposures [3]: micromolar range
Clc1ccc(CCCOCCCN2CCCCC2)cc1 [pitolisant, 1-[3-[3-(4-chlorophenyl)propoxy]propyl]piperidine] | 11 | 
O=C(CN1CCOCC1)Nc1ccc(OC2CCN(C3CCC3)CC2)cc1 [samelisant, N-{4-[(1-cyclobutylpiperidin-4-yl)oxy]phenyl}-2-(morpholin-4-yl)acetamide] | < 1 | 
